The numbers were not newly measured in patent US12497429B2, “Saponin-based vaccine adjuvants” (priority 2018, dated 2025), which cites them from elsewhere.

The conditions of the data set: compared to vaccine alone.

On to monophosphoryl lipid A [MPL], for which the “boost of serum Ab titers” value is given as 10-20 fold.
